Assay: osmotic coefficient (dimensionless); mn = molality of the nth substance listed, in mol/kg
Details: 323.15 K, 101 kPa, Liquid, Knauer K-7000 vapour pressure osmometer

CCCC[N+]1(C)CCCC1.N#CN=C=[N-] [1-butyl-1-methylpyrrolidinium dicyanamide] + CCC(C)O
Details	osmotic coefficient
m1 = 0.0878	0.793
m1 = 0.1149	0.755
m1 = 0.1863	0.705
m1 = 0.2981	0.641
m1 = 0.4092	0.621
m1 = 0.5397	0.591
m1 = 0.8291	0.58
m1 = 1.213	0.555
m1 = 1.611	0.556
m1 = 2.019	0.548
m1 = 2.4	0.539
m1 = 2.776	0.533
m1 = 3.307	0.523

CCCC[N+]1(C)CCCC1.N#CN=C=[N-] [1-butyl-1-methylpyrrolidinium dicyanamide] + CC(C)O
Details	osmotic coefficient
m1 = 0.0709	0.942
m1 = 0.1087	0.878
m1 = 0.1972	0.827
m1 = 0.2934	0.778
m1 = 0.3976	0.75
m1 = 0.4909	0.722
m1 = 0.7769	0.685
m1 = 1.175	0.645
m1 = 1.595	0.631
m1 = 1.998	0.612
m1 = 2.419	0.608
m1 = 2.821	0.595
m1 = 3.296	0.59

CCCC[N+]1(C)CCCC1.N#CN=C=[N-] [1-butyl-1-methylpyrrolidinium dicyanamide] + CCCO
Details	osmotic coefficient
m1 = 0.0836	0.9
m1 = 0.119	0.858
m1 = 0.2054	0.8
m1 = 0.2962	0.743
m1 = 0.4029	0.71
m1 = 0.502	0.689
m1 = 0.7791	0.653
m1 = 1.182	0.614
m1 = 1.61	0.587
m1 = 2	0.576
m1 = 2.442	0.565
m1 = 2.865	0.56

CCCC[N+]1(C)CCCC1.N#CN=C=[N-] [1-butyl-1-methylpyrrolidinium dicyanamide] + CCCCCO
Details	osmotic coefficient
m1 = 0.0446	0.63
m1 = 0.0818	0.59
m1 = 0.1078	0.558
m1 = 0.1865	0.512
m1 = 0.299	0.491
m1 = 0.3928	0.477
m1 = 0.5108	0.467
m1 = 0.8086	0.453
m1 = 1.191	0.444
m1 = 1.598	0.435
m1 = 2.004	0.425
m1 = 2.406	0.417
m1 = 2.798	0.409
m1 = 3.063	0.404

CCCC[N+]1(C)CCCC1.N#CN=C=[N-] [1-butyl-1-methylpyrrolidinium dicyanamide] + CCCCO
Details	osmotic coefficient
m1 = 0.0577	0.734
m1 = 0.0761	0.68
m1 = 0.1089	0.665
m1 = 0.2006	0.624
m1 = 0.296	0.602
m1 = 0.4011	0.587
m1 = 0.4745	0.581
m1 = 0.8117	0.57
m1 = 1.214	0.551
m1 = 1.617	0.541
m1 = 2.033	0.532
m1 = 2.43	0.52
m1 = 2.845	0.516
m1 = 3.308	0.508
